The values that follow come from US10646472B2, “Composition comprising a photosensitive compound in a polymeric nanoparticle, and a method of using the composition” (Oregon State University, priority 2015, dated 2020).

For this data set, the system named is Chinese Hamster Ovary (CHO-K1) cells. Description: In vitro micronucleus assay (genotoxicity). The following applies: SiNc-NP 90 μg/mL, 24 hours; MMS 50 μg/mL positive control. The class given is cell-based. The protocol:
Genotoxicity describes the property of chemical agents that damages the genetic information within a cell causing mutations, which may lead to cancer. An in vitro micronucleus assay was used to determine the genotoxicity of SiNc-NP on Chinese Hamster Ovary (CHO-K1) cells. Cells were treated with SiNc-NP (90 μg/mL) for the experiment group, fresh media for negative control, or methyl methanesulfonate (MMS, 50 μg/mL) for a positive control.
A quantitative analysis was then performed to evaluate the genotoxicity. The analysis counted the number of micronuclei per 1000 cells.

As for `COS(C)(=O)=O` [MMS, methyl methanesulfonate], the “appearance of cell nuclei (fluorescence imaging, DAPI)” value is “noticeable numbers of small buds/fragments appeared on or near cell nuclei”.
